Laboratory results taken from patent US7713706B2, “Method of fixing low-molecular compound to solid-phase support” (RIKEN, priority 2003, dated 2010).

Legend:
[1] = test system: anti-digoxin monoclonal antibody clone DI-22-FITC conjugate; experiment: Detection of low molecule-protein bonding on low molecule-fixed slide (fluorescent slide scanner, 488 nm); format: binding; details: light of 488 nm; 162 μg/mL anti-digoxin monoclonal antibody clone DI-22-FITC conjugate; room temperature 1 hour; compound fixed on photophilic atomic group-introduced slide
Description: (§1) On the photophilic atomic group-introduced slide, 0.2 μL of each of solutions of low-molecular compounds (biotin, rhodamine B, digoxin) in DMSO, which had been prepared in concentrations of 100, 10, 1, 0.1 and 0.01 mM, was spotted. The slide was dried in an incubator at 35° C. for 3 hours and further dried with a vacuum pump for 20 hours. […] The slide was then washed while shaking by immersing in ethanol, DMF, THF, ethanol and deionized water in this order (for 1 hour each). Thus, a slide on which low molecules were fixed was produced.
(§2) Onto the low molecule-fixed slide, a protein solution (162 μg/mL anti-digoxin monoclonal antibody clone DI-22-FITC conjugate, 3.7 μg/mL streptavidin-Alexa Fluor 633 conjugate, 1% (w/v) skimmed milk, 77 mM NaCl, 0.05% (w/v) TWEEN™ 20 (polysorbate 20), 50 mM Tris-HCl, pH 7.5) was added at a rate of […], and then treated at room temperature for 1 hour. The slide was washed while shaking three times with a wash buffer (77 mM NaCl, 0.05% (w/v) TWEEN™ 20 (polysorbate 20), 50 mM Tris-HCl, pH 7.5), rinsed with deionized water, and dehydrated in a dehydration centrifuge (400×g) for 1 minute, The slide was exited with light of 488, 532 and 635 nm, respectively, and the emitted fluorescent light was observed on a fluorescent slide scanner. […]

[2] = target: streptavidin-Alexa Fluor 633 conjugate (Streptomyces avidinii, UniProt P22629); experiment: Detection of low molecule-protein bonding on low molecule-fixed slide (fluorescent slide scanner, 635 nm); format: binding; details: light of 635 nm; 3.7 μg/mL streptavidin-Alexa Fluor 633 conjugate; room temperature 1 hour; compound fixed on photophilic atomic group-introduced slide
streptavidin-Alexa Fluor 633 conjugate, sequence (P22629 25-183): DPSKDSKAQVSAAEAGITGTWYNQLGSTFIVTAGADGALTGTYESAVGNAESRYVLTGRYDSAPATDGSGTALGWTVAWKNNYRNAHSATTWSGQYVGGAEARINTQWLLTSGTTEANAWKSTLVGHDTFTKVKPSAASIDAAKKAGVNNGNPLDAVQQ
Description: as §1, §2

Compound | binding of fixed low-molecular compound to protein (fluorescence detected at spotted areas) [1] | binding of fixed low-molecular compound to protein (fluorescence detected at spotted areas) [2]
C[C@H]1O[C@@H](O[C@H]2C(O)C[C@H](OC3CC[C@@]4(C)[C@H](CC[C@@H]5[C@@H]4C[C@@H](O)[C@]4(C)[C@@H](C6=CC(=O)OC6)CC[C@]54O)C3)O[C@@H]2C)C[C@H](O)C1O[C@H]1C[C@H](O)[C@H](O)[C@@H](C)O1 (some centres unmarked) [digoxin] | bound to the protein | 
O=C(O)CCCC[C@@H]1SC[C@@H]2NC(=O)N[C@@H]21 [biotin] |  | bound to the protein
